From US20050182065A1, “Method of stimulating hair growth” (priority 2004, published 2005) come the findings set out here.

Bounds are passed on as bounds.

Assay [1] has as its system C3H/HeN mice. Description: Telogen Conversion Assay. Conditions: for Results: number of days following initiation of treatment when hair growth appeared in 50% of the mice: topical once daily for 5 days. It is filed as in vivo. The source says: The Telogen Conversion Assay measures the potential of a compound (hereinafter referred to as the “test compound”) to convert mice in the resting stage of the hair growth cycle (“telogen”) to the active stage of the hair growth cycle (“anagen”). This assay takes advantage of the fact that the fur (i.e. hair) of 40-day-old C3H/HeN mice is in the telogen phase. This phase usually continues until about 75 days of age, at which point, anagen naturally occurs in these animals. In this assay, selected areas of 40-day-old mice (approximate) are shaved, contacted with a test agent, or a control, and the difference in the rate of hair growth is measured (i.e. induction of the anagen phase). The first sign of anagen is the darkening of skin color as melanocytes in the follicles start to synthesize melanin, in preparation for the production of pigmented hairs.
Female C3H/HeN mice, 7 weeks old (Charles River Laboratories, Raleigh, N.C.) were used for the study. Fur was clipped from the dorsal region of the mice prior to initiation of the study. Only mice with pink skin, a visual indication of the telogen phase, were selected for inclusion in the study.
Test compounds (from Table A) were dissolved in a vehicle consisting of propylene glycol (30%) and ethanol (70%). A test compound dissolved in vehicle, or a vehicle control (30/70 propylene glycol/ethanol, unless otherwise specified) was applied topically to the clipped dorsal region of the mice in each test group (7-10 mice) in a volume of 20 μl/cm^2. Treatments were applied once daily for 5 days.
The treatment area was observed and graded for signs of hair growth. The hair growth response was quantified by recording, for each animal, the day on which signs of hair growth first appeared over the treated area. The first sign of anagen was the darkening of skin color as melanocytes in the follicles started to synthesize melanin. The response time was measured as the number of days between initiation of treatment and when hair growth was present in 50% of the mice in a given group.
The results are reported as the number of days following initiation of treatment when hair growth appeared in 50% of the mice in a given group.

The test system of assay [2] is C3H/HeN mice. The assay is described as follows: Telogen Conversion Assay. It is filed as in vivo. Conditions: Experiment 8; for Results: number of days following initiation of treatment when hair growth appeared in 50% of the mice: topical once daily for 5 days, solvent polyethylene glycol 30 v/v %, ethanol 30 v/v %, transcutanol 40 v/v %, vehicle 28; for Induction of anagen (conclusion in words): transcutol, ethanol, polypropylene glycol vehicle.

The mark [3] stands for this setting: Experiment 15, 0.03 w/v %, propylene glycol 30%/ethanol 70%, vehicle >30.
The mark [4] stands for this setting: Experiment 15, 0.3 w/v %, propylene glycol 30%/ethanol 70%, vehicle >30.
Where [5] appears, read: Experiment 15, 1.0 w/v %, propylene glycol 30%/ethanol 70%, vehicle >30.
Where [6] appears, read: Experiment 15, terminated early.

`Cn1nc(O[C@@H]2c3cc(S(=O)(=O)c4ccccc4O)ccc3OC(C)(C)[C@@]2(C)O)ccc1=O` [Compound #7]: the “Results: number of days following initiation of treatment when hair growth appeared in 50% of the mice” value (“Results: number … in 50% of the mice” below) in the assay on C3H/HeN mice [1] (Experiment 9, 0.03 w/v %, propylene glycol 30%/ethanol 70%, terminated early) is recorded as above 33 days; with C3H/HeN mice [1] (Experiment 9, 0.3 w/v %, propylene glycol 30%/ethanol 70%, terminated early) it was above 33 days; in the assay on C3H/HeN mice [1] (Experiment 9, 1.0 w/v %, propylene glycol 30%/ethanol 70%, terminated early), above 33 days; with C3H/HeN mice [1] (Experiment 10, 0.1 w/v %, propylene glycol 30%/ethanol 70%, terminated early) it was above 34 days; in the assay with C3H/HeN mice [1] (Experiment 10, 0.1 w/v %, solvent polyethylene glycol 30 v/v %, ethanol 30 v/v %, transcutanol 40 v/v %, terminated early) it was above 34 days; with C3H/HeN mice [1] (Experiment 10, 0.3 w/v %, propylene glycol 30%/ethanol 70%, terminated early), above 34 days. Moreover, the “Results: number … in 50% of the mice” value is reported as above 34 days in the assay on C3H/HeN mice [1] (Experiment 10, 0.3 w/v %, solvent polyethylene glycol 30 v/v %, ethanol 30 v/v %, transcutanol 40 v/v %, terminated early); above 30 days with C3H/HeN mice [1] (setting [3]); above 30 days in the assay on C3H/HeN mice [1] (setting [4]); above 30 days with C3H/HeN mice [1] (setting [5]); 21 days in the assay on C3H/HeN mice [2] (0.3 w/v %); 21 days in the assay with C3H/HeN mice [2] (1.0 w/v %). The “Induction of anagen (conclusion in words)” value (from here on “Induction of anagen”) is reported as “showed no effect at the time of termination” in the assay on C3H/HeN mice [1] (setting [6]) and “did exhibit activity” in the assay with C3H/HeN mice [2].

Regarding `CCOC(=O)CCCn1nnnc1-c1ccc2c(c1)[C@H](Oc1ccc(O)nn1)[C@@](C)(O)C(C)(C)O2` [Compound #2], the “Results: number … in 50% of the mice” value in the assay with C3H/HeN mice [1] (Experiment 3, 0.1 w/v %, propylene glycol 30%/ethanol 70%, terminated early) is given as above 35 days; in the assay on C3H/HeN mice [1] (Experiment 3, 0.3 w/v %, propylene glycol 30%/ethanol 70%, terminated early) it was above 35 days; in the assay on C3H/HeN mice [1] (Experiment 3, 1.0 w/v %, propylene glycol 30%/ethanol 70%, terminated early), above 35 days; in the assay with C3H/HeN mice [1] (Experiment 3, 2.5 w/v %, propylene glycol 30%/ethanol 70%, terminated early), above 35 days.

As for `Cn1nc(OC2c3cc(S(=O)(=O)c4ccc(O)cc4)ccc3OC(C)(C)C2(C)O)c2ccccc2c1=O` (stereo not drawn) [Compound #4], the “Results: number … in 50% of the mice” value in the assay with C3H/HeN mice [2] (0.3 w/v %) and in the assay on C3H/HeN mice [2] (1.0 w/v %) was above 35 days each time. For the same compound, the “Induction of anagen” value in the assay with C3H/HeN mice [2] is “inactive”.

With `CCOc1c(N[C@@H]2c3cc(S(=O)(=O)c4cccc(O)c4)ccc3OC(C)(C)[C@@]2(C)O)c(=O)c1=O` [Compound #3], the “Results: number … in 50% of the mice” value in the assay with C3H/HeN mice [2] (0.3 w/v %) and in the assay with C3H/HeN mice [2] (1.0 w/v %) was above 35 days throughout. The “Induction of anagen” value with C3H/HeN mice [2] is “inactive”.

For `Cn1nc(O[C@@H]2c3cc(S(=O)(=O)c4ccc(O)cc4)ccc3OC(C)(C)[C@@]2(C)O)ccc1=O` [Compound #6], the “Results: number … in 50% of the mice” value with C3H/HeN mice [1] (Experiment 2, 0.3 w/v %, propylene glycol 30%/ethanol 70%, vehicle 25) is 18 days; with C3H/HeN mice [1] (Experiment 2, 1.0 w/v %, propylene glycol 30%/ethanol 70%, vehicle 25), 30 days; with C3H/HeN mice [1] (Experiment 5, 0.03 w/v %, propylene glycol 30%/ethanol 70%, vehicle >35), above 35 days; with C3H/HeN mice [1] (Experiment 5, 0.1 w/v %, propylene glycol 30%/ethanol 70%, vehicle >35), above 35 days; with C3H/HeN mice [1] (Experiment 5, 0.3 w/v %, propylene glycol 30%/ethanol 70%, vehicle >35) it was 23 days; in the assay with C3H/HeN mice [1] (Experiment 6, 0.003 w/v %, propylene glycol 30%/ethanol 70%, vehicle >35), above 35 days. In addition, the “Results: number … in 50% of the mice” value in the assay on C3H/HeN mice [1] (Experiment 6, 0.03 w/v %, propylene glycol 30%/ethanol 70%, vehicle >35) is listed as above 35 days; in the assay on C3H/HeN mice [1] (Experiment 6, 0.3 w/v %, propylene glycol 30%/ethanol 70%, vehicle >35) it was above 35 days; in the assay on C3H/HeN mice [1] (Experiment 7, 0.003 w/v %, propylene glycol 30%/ethanol 70%, vehicle 29), 31 days; in the assay on C3H/HeN mice [1] (Experiment 7, 0.03 w/v %, propylene glycol 30%/ethanol 70%, vehicle 29), above 33 days; in the assay with C3H/HeN mice [1] (Experiment 7, 0.3 w/v %, propylene glycol 30%/ethanol 70%, vehicle 29), above 33 days; with C3H/HeN mice [1] (setting [3]), above 30 days. In addition, the “Results: number … in 50% of the mice” value is listed as 14 days with C3H/HeN mice [1] (setting [4]) and above 30 days in the assay with C3H/HeN mice [1] (setting [5]). For the same compound, the “Induction of anagen” value in the assay on C3H/HeN mice [1] (Experiment 5, terminated early) was “induced anagen at the highest concentration tested (0.3%)”; in the assay with C3H/HeN mice [1] (Experiment 6, terminated early, up to day 35), “no effect was seen”; in the assay on C3H/HeN mice [1] (Experiment 7, proceeded to completion), “did not induce anagen prior to the control group”; in the assay with C3H/HeN mice [1] (setting [6]), “induced anagen when applied at a concentration of 0.3 w/v %”.

For `CCOC(=O)CCCn1nnnc1-c1ccc2c(c1)[C@@H](Oc1ccnc(O)c1)[C@](C)(O)C(C)(C)O2` [Compound #5], the “Results: number … in 50% of the mice” value with C3H/HeN mice [2] (0.3 w/v %) and in the assay on C3H/HeN mice [2] (1.0 w/v %) was above 35 days in each case. The “Induction of anagen” value in the assay with C3H/HeN mice [2] is “inactive”.
